Source: patent publication US20030134859A1 (SANKYO COMPANY, LIMITED, priority 2000, published 2003)

What was measured:
[1] = test system: human colon cancer cells COL-2-JCK; assay: Inhibition of colony forming activity in human colon cancer cells; format: cell-based; details: 1 μM test compound, 10 days, sum of colony areas vs control; for inhibition at 1 µM: Homo sapiens, 240 h, read-out: Inhibition Rate (%) against the colony forming activity
Description: For the medium to culture the human colon cancer cells, D-MEM/F-12 medium containing inactivated bovine fetal serum at a concentration of 10% (GIBCO) was used. The human colon cancer cells COL-2-JCK (purchased from Institute for Experimental Animals) grown in mass formation in a plastic dish for the cell culture with an inner diameter of 100 mm were stripped off from the dish by using EDTA (ethylenediaminetetraacetic acid) and 0.05% trypsin solution. Then, a cell dilution solution was prepared at a concentration of 100 cells/mL solution which was diluted with the medium (D-MEM/F-12).
Three (3) mL of the cell solution were inoculated in each well of a 6-well plastic plate (300 cells/well). The test compound that was dissolved in DMSO solution so as to be a final concentration of 1 μM of the test compound and that of DMSO solution of 0.1% was added to each well. DMSO solution alone was added into the well for the control so as to be a final concentration of 0.1%.
The cells in each well were cultured for 10 days at 37° C. in the presence of 5% CO2. After the culturing was finalised, each well was washed once with Dulbecco-phosphate-buffer-saline solution (bivalent anion). Then, 1.5 ml of neutral buffered formalin solution containing 0.02% crystal violet was added to each well and the plate was kept stationary for 5 min for fixation and staining the cells. After fixation and staining, the cells were washed with water and were air-dried. Then the sum of the colony area (mm^2) of the stained cancer cells was calculated by using an image analyzer PCA-11 (SystemScience). From the calculated values, the inhibition rate (%) of the compound against the colony forming activity was obtained based on the following equation.
Inhibition Rate (%) against the colony forming activity=(1−A/B)×100
A: Sum of Colony Areas in the Group Treated with 1 μM of the Test Compound
B: Sum of Colony Areas in the Control Group

[2] = test system: Mouse preadipocyte strain 3T3-L1; assay: Inhibition of differentiation as an indication of acetic acid uptake; format: cell-based; details: control (0.01% dimethylsulfoxide) = 100%; for activity at 0.1 µM: Mus musculus, 3T3-L1, 0.1 μM test substance, read-out: Rate of Uptake (%) of [2-14C] acetic acid; for Rate of Uptake (%) of [2-14C] acetic acid: 0.1 μM test substance
Outline: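 Confluent 3T3-L1 cells induced to differentiate for 4 days (insulin, IBMX, dexamethasone, 5% FBS) with test compound at 0.1 μM final or 0.01% DMSO, then 2 days in insulin maintenance medium, at 37 °C, 10% CO2. [2-14C]acetic acid uptake over 1 hr counted by scintillation; expressed as % of DMSO control.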

[3] = test system: Rat white adipocytes; assay: Stimulation of differentiation of the adipocytes (Oil Red O); format: cell-based; details: Rattus norvegicus, Adipocyte, 120 h, 100 nM test compound; 5 days; Oil Red O ABS550; control = 100%, blank = 0%; Table 7; read-out: Rate of Differentiation (%)
Outline: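 Rat white adipocytes, 5,000 cells/well, cultured 5 days in differentiation-inducing medium with test compound at final 100 nM (0.1% DMSO). Cells fixed, stained with Oil Red O, dye extracted in DMSO and read at 550 nm; differentiation rate expressed relative to vehicle control (100%) and cell-free blank (0%).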

[4] = molecular target: T1, human PPAR γ 2 (Homo sapiens, UniProt P37231); assay: PPAR γ transcriptional activity, luciferase reporter, test compound alone; format: cell-based; details: concentration indicating Emax/2, MG63 cells transfected with pSG5-hPPARg and pGV-P2-PPRE, 24 hr
T1 construct: expressed in transfected cells; host or cells: human osteosarcoma MG63, transiently co-transfected with pSG5-hPPARg and the reporter pGV-P2-PPRE
T1 sequence (P37231 1-505): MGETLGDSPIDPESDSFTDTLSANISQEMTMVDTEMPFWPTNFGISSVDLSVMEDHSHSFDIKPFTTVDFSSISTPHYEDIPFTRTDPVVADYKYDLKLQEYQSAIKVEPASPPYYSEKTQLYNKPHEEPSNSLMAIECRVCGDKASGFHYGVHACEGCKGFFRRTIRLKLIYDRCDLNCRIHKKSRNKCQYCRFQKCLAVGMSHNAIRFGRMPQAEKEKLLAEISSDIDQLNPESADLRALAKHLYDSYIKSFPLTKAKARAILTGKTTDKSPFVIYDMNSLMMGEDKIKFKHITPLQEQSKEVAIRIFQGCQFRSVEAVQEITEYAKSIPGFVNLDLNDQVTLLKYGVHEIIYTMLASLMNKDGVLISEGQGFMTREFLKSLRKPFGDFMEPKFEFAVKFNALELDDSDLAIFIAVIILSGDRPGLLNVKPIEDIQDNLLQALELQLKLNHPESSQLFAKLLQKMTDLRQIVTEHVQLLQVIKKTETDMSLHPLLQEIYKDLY
Description: The primers of the polymerase chain reaction (hereinafter “PCR”) were designed according to the gene sequence of human PPAR γ 2 (GenBANK accession No. D83233). In order to insert the genes into the BamHI site of the plasmid pSG5 ([…] CLONING SYSTEMS), Bgl II sites were added upstream and downstream of the genes encoding human PPAR γ 2 protein. For this, 2 kinds of polynucleotides shown in the sequence numbers 1 and 2 in the sequence table described below (hereinafter “S1” and “AS1”, respectively) were used as PCR primers.
In order to determine transcriptional activity via PPAR γ, 2 kinds of polynucleotides represented in sequence numbers 3 and 4 in the sequence table described below (hereinafter “S2” and “AS2”, respectively) were used for construction of the reporter plasmid having PPAR responsive element. The DNA fragment inserted was designed based on the gene sequence in the promoter region of rat acylCo-A oxidase (J. D. Tugwood, EMBO J., 11 (2), pp433-439 (1992)). For insertion of the DNA fragment into the reporter plasmid pGV-P2 (TOYO INK MFG CO., LTD), a NheI site and an XhoI site were added to the S2 and AS2, respectively.
Using cDNA library (Clontech) derived from human adipose tissue as a template, DNA oligomers S1 and AS1 that were synthesized in the procedure 1 as primers and Ex-Taq™ (TAKARA BIO INC.) as a thermostable DNA polymerase-PCR was carried out. As a result of the PCR, the c.a. 1500 bps DNA fragments were amplified. Each cycle consisted of incubation at 94° C. for 1 min for denaturation of the template, then at 55° C. for 30 sec for annealing of DNA oligomers the PCR primer, and then at 72° C. for 30 sec for extension of the chain. The obtained DNA fragments with approximately 1500 base pairs were digested at the Bgl II sites and were inserted into BamHI sites of pSG5. Thus a human PPAR γ expression plasmid named pSG5-hPPAR g was obtained. The nucleotide sequence of the inserted DNA fragment was confirmed to be identical sequence to the human PPAR γ 2 reported by the dideoxy method.
Vector pGV-P2 digestion products was prepared by digestion using the restriction enzymes, NheI and XhoI, and purified by 1.0% agarose-gel electrophoresis. The DNA oligomers, S2 and AS2 obtained in Procedure 2, were mixed together and were incubated in a hot bath at 94° C. for 1 min. After the annealing was partially broken, they were further incubated at 25° C. for 1 hr. Thus double-stranded DNA with annealing of S2 and AS2 was formed. Then, the terminus of the double-stranded DNA with annealing of S2 and AS2 was phosphorylated with DNA polynucleotide kinase (TOYOBO CO., LTD). After that, it was ligated to the pGV-P2 digestion products which were prepared previously using the NheI site and XhoI site. Thus the reporter plasmid pGV-P2-PPRE was obtained.
Using the plasmid obtained by the procedures 3 and 4, transformation of Escherichia coli HB-101 strain was carried out by conventional methods. HB-101 strain having the plasmid was incubated in L-broth medium (containing 10 g of trypton (Difco), 5 g of yeast extract (Difco), 5 g of sodium chloride in 1 L of aqueous solution) containing 100 μg/ml of ampicillin at 37° C. for 17 hrs. Then, each plasmid was purified by the alkaline-SDS method and employed for the gene transfection to mammalian cells. After mixing the pSG5-hPPARg, PGV-P2-PPRE and LipofectAMINE reagent (GIBCO BRL), the human osteosarcoma MG63 was transiently transfected. Then the cells were recovered. The recovered cells were plated on a 96-well plate so as to be 30,000 cells/well and cultured in a CO2 incubator (NAPCO) at 37° C. for 24 hr under the condition of 5% CO2, 95%-RH.
Various concentrations of the test compound alone were added to culturing medium of the cells prepared in the Procedure 5. After 24 hr of culturing, LT2.0 (TOYO INK MFG CO., LTD), a luciferase substrate, was added to the medium free culture plate. […]

[5] = test system: leptin production; assay: Enhancing activity for leptin production in adipocytes (ELISA); format: cell-based, rat; details: 24 hr, leptin concentration as % of control group
Outline: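 Collagenase-dispersed epididymal adipocytes from 6-week-old male Wistar Imamichi rats, cultured in DMEM/F-12 (1:1) with test compound at final 1 µM, 100 nM, 10 nM or 1 nM (0.1% DMSO) for 24 h at 37 °C, 5% CO2. Leptin in filtrate measured by ELISA; activity = treated/DMSO-control leptin × 100 (%).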

[6] = test system: Rat white adipocytes; assay: Inhibition of the differentiation of adipocytes (Oil Red O); format: cell-based; details: Rattus norvegicus, Adipocyte, 120 h, 100 nM test compound; 5 days; Oil Red O ABS550; control = 100%, blank = 0%; Table 3; read-out: Rate of Differentiation (%)
Outline: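 Rat white preadipocytes, 5,000 cells/well, given differentiation medium with compound at 100 nM final (0.1% DMSO) for 5 days at 37 °C. Lipid stained with Oil Red O, eluted in DMSO, read at 550 nm; differentiation % relative to DMSO control (100%) and blank (0%).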

Structure (SMILES)	EC50 [4] [nM]	inhibition at 1 µM [1] [%]	activity at 0.1 µM [2] [%]	other results
Cc1cccc(NC(=O)c2cc([N+](=O)[O-])ccc2Cl)c1 [Example 11, N-(3-Methylphenyl)-(2-chloro-5-nitrophenyl)carboxamide]	–	15	67.3	–
CCc1cccc(NC(=O)c2cc([N+](=O)[O-])ccc2Cl)c1 [Example 14, N-(3-Ethylphenyl)-(2-chloro-5-nitrophenyl)carboxamide]	–	16	82.1	activity at 0.1 µM [3]: 121%
CC(C)(C)OC(=O)Nc1ccc(NC(=O)c2cc([N+](=O)[O-])ccc2Cl)cc1 [Example 45, N-[4-(tert-Butyloxycarbonylaminophenyl)]-(2-chloro-5 nitrophenyl)carboxamide]	–	–	–	Inhibition Rate (%) against the colony forming activity [1]: 32.0%; Rate of Uptake (%) of [2-14C] acetic acid [2]: 68.9%
Cc1cc(NS(=O)(=O)c2ccc(NC(=O)c3cc([N+](=O)[O-])ccc3Cl)cc2)nc(C)n1 [Example 98, N-[[4-(2,6-Dimethylpyrimidin-4-yl)aminosulfonyl]phenyl]-(2-chloro-5-nitrophenyl)carboxamide]	–	–	–	Facilitating activity to produce leptin ([5]; 1 μM): 117.0%; Facilitating activity to produce leptin ([5]; 100 nm): 110.1%; Inhibition Rate (%) against the colony forming activity [1]: 25.0%; Rate of Uptake (%) of [2-14C] acetic acid [2]: 89.1%
O=C(Nc1ccc(S(=O)(=O)Nc2ccccn2)cc1)c1cc([N+](=O)[O-])ccc1Cl [Example 100, N-[4-[(Pyridin-2-yl)aminosulfonyl]phenyl]-(2-chloro-5-nitrophenyl)carboxamide]	–	50	–	–
COC(=O)c1cccc(NC(=O)c2cc([N+](=O)[O-])ccc2Cl)c1 [Example 143, Methyl 3-(2-chloro-5-nitrobenzoylamino)benzoate]	–	25	60.1	activity at 0.1 µM [6]: 84.9%

The next lines start with results.

EC50 [4] [nM]	Structure (SMILES)	inhibition at 1 µM [1] [%]	activity at 0.1 µM [2] [%]	other results
5.1	Cc1cnc(NC(=O)c2cc([N+](=O)[O-])ccc2Cl)c(C)c1 [Example 74, N-(3,5-Dimethylpyriridin-2-yl)-(2-chloro-5-nitrophenyl)carboxamide]	–	–	Rate of Uptake (%) of [2-14C] acetic acid [2]: 70.4%
120	COC(=O)c1cscc1NC(=O)c1cc([N+](=O)[O-])ccc1Cl [Example 76, N-(4-Methoxycarbonylthiophen-3-yl)-(2-chloro-5-nitrophenyl)carboxamide]	–	54.3	–
68	CCOC(=O)c1c(NC(=O)c2cc([N+](=O)[O-])ccc2Cl)sc2c1CCCC2 [Example 79, N-[3-Carboethoxy-4,5,6,7-tetrahydrobenzo[b]thiophen-2-yl]-(2-chloro-5-nitrophenyl)carboxamide]	–	41.5	–
8.8	O=C(Nc1ccc(S(=O)(=O)Nc2ccc3cn[nH]c3c2)cc1)c1cc([N+](=O)[O-])ccc1Cl [Example 103]	–	72.1	–
88	CCCCNC(=O)NS(=O)(=O)c1ccc(NC(=O)c2cc([N+](=O)[O-])ccc2Cl)cc1 [Example 107, N-[4-(Butylaminocarbonylaminosulfonyl)phenyl]-(2-chloro-5-nitrophenyl)carboxamide]	–	71.3	–
31	O=C(Nc1ccc(O)cc1)c1cc([N+](=O)[O-])ccc1Cl [Example 193, N-(4-Hydroxyphenyl)-(2-chloro-5-nitrophenyl)carboxamide]	–	–	activity at 0.1 µM [6]: 62.4%
